Patent US8367659B2, “Oxazinyl isoflavonoid compounds, medicaments and use” (Marshall Edwards, Inc., priority 2007, dated 2013)

Legend:
[1] = test system: TNFα synthesis in RAW 264.7 murine macrophages; assay: LPS-induced TNFα synthesis in RAW 264.7 murine macrophages; assay type: cell-based, mouse; conditions: 10 μM; relative to vehicle alone; FIG. 5
Protocol: The mouse macrophage cell line RAW 264.7 was cultured in DMEM supplemented with foetal calf serum (FCS), […] glutamine and 50 U/ml penicillin/streptomycin. Cells were treated with either test compound (in 0.025% DMSO) or vehicle alone, and added one hour before 50 ng/ml LPS. After incubation for 24 h, culture media was collected for PGE2 or TXB2 measurement by ELISA (Cayman Chemical), and TNFα measurement using an ELISA (Becton Dickinson). Test compounds were examined a concentration of 10 μM. […] Consequently, to assess the effect of test compounds on various analytes, cell viability was taken into consideration with the use of the formula: Actual effect of test compound=measured effect−(effect on cell viability×measured effect)

[2] = Free radical scavenging with DPPH; conditions: DPPH, 20 minutes, absorbance 517 nm; Table 4; read-out: Free radical scavenging ability EC50
How it was run: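 Compounds reacted with DPPH in ethanol for 20 min, screened at 100 μM, and absorbance at 517 nm compared with a DPPH-ethanol blank. IC50 was taken as the concentration giving a 0.6 absorbance change, with 1.2 units representing total scavenging.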

[3] = test system: human umbilical vein smooth muscle cells (HUVSMC); assay: Proliferation of human umbilical vein smooth muscle cells (MTT); assay type: cell-based; conditions: 10 μM; 10% FCS, 5 days; FIG. 8
Protocol: The effect of test compounds on human umbilical vein smooth muscle cells (HUVSMC) was examined. Cells were seeded into 96 well plates at a low seeding rate of 1.6×10^3 cells per well, and allowed to attach for 24 hours. The cells were then washed twice with medium without FCS and incubated in medium without FCS for 20 hours to serum starve them. Analogue was prepared in medium without FCS at 20 μM and added to the plates and incubated for one hour. Final analogue concentration was therefore 10 μM. The cells were then stimulated by adding medium +20% FCS, to give a final FCS concentration of 10%. The cells were incubated until the control cells i.e. those with FCS and no compound, were just confluent (5 days). An MTT assay was performed, and difference in absorbance in analogue treated cells from the control was calculated using the formula: test/control*100−100. Results
The effect of test compounds on human umbilical vein smooth muscle cells (HUVSMC), was examined. Cells, tissue explants from a neonate (HRI—passage 2), were seeded into 96 well plates at 1×10^3 cells per well, and allowed to attach for 24 hours. They were then washed twice and incubated in medium without foetal calf serum (FCS) for 24-48 hours to serum-starve them. Test compounds were prepared in medium without FCS and added to the plates and incubated for one hour. Medium with FCS was added to give a final concentration of 10% and the plates incubated for 4-5 days until the controls were just confluent.

CP70 = assay: Anti-cancer activity, CP70 ovarian cancer cells (MTT); assay type: cell-based; conditions: 120 h, 5 days
HPAC = assay: Anti-cancer activity, HPAC pancreatic cancer cells (MTT); assay type: cell-based; conditions: Homo sapiens, 120 h, 5 days
MM200 = assay: Anti-cancer activity, MM200 melanoma cells (MTT); assay type: cell-based; conditions: 120 h; 5 days, MTT
cancer cell lines = assay: Anti-cancer activity, cancer cell lines tested as a group (MTT); assay type: cell-based
[4] = test system: neonatal foreskin fibroblasts (NFF); assay: Toxicity to normal cells, neonatal foreskin fibroblasts; assay type: cell-based; conditions: Fibroblast; normal, non-transformed cells; read-out: IC50 μM, NFF Fibroblast
Protocol: (§1) IC50 values were determined for each cell line. Cells were seeded in 96-well plates at an appropriate cell density as determined from growth kinetics analysis and cultured for 5 days in the absence and presence of the test compounds. Cell proliferation was assessed after the addition of 20 μl of 3-4,5 dimethylthiazol-2,5-diphenyl tetrazolium bromide (MTT, 2.5 mg/ml in PBS, Sigma) for 3-4 hrs at 37° C. according to manufacturer's instructions. IC50 values were calculated from semi-log plots of % of control proliferation on the y-axis against log dose on the x-axis.
(§2) The neonatal foreskin fibroblasts (NFF) were a gift from Dr. Peter Parsons (Queensland Institute of Medical Research). Rabbit kidney (RK-13) cells were obtained from Miller Whalley (Macquarie University). Both cell lines were cultured in RPMI supplemented with 10% FCS(CSL, Australia), penicillin (100 U/ml), streptomycin ([…]), L-glutamine (2 mM) and sodium bicarbonate (1.2 g/L), and cultured at 37° C. in a humidified atmosphere of 5% CO2. IC50 values were determined as described above.

[5] = test system: Rabbit kidney (RK-13) cells; assay: Toxicity to normal cells, rabbit kidney (RK-13) cells; assay type: cell-based; conditions: Oryctolagus cuniculus, normal, non-transformed cells, read-out: IC50 μM, RK Rabbit Kidney
Protocol: as §1, §2

[6] = biological target: T1, GAL4-PPARγ fusion protein (Homo sapiens, UniProt P37231); assay: PPARγ activity in transfected HEK293 cells (beta-lactamase reporter); assay type: cell-based; conditions: FIG. 13: 1 μM
T1 construct: host or cells: HEK293 (human embryonic kidney), stably transfected
T1 sequence (P37231 238-503 limits assumed): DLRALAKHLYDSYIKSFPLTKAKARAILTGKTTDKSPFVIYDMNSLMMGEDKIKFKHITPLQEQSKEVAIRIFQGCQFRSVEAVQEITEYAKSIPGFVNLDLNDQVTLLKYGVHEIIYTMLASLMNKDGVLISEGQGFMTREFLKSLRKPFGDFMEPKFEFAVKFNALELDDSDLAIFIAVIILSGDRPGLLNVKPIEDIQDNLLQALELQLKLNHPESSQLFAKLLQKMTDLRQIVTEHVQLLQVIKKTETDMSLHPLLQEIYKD
T1 sequence (P04386 1-147 partner limits assumed): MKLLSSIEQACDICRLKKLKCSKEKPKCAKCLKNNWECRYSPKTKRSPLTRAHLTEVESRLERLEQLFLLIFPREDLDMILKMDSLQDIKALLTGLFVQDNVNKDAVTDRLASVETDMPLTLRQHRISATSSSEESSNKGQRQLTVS
How it was run: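 HEK293 cells stably expressing GAL4-DBD/PPARγ-LBD fusion with beta-lactamase reporter, treated with compound at 1, 5 and 10 μM for 16-18 h. Beta-lactamase read via FRET substrate (2 h, room temperature), ex 409 nm, em 460/530 nm; background-subtracted emission ratio.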

HT29 = assay: Anti-cancer activity, HT-29 colon adenocarcinoma cells (MTT); assay type: cell-based; conditions: Homo sapiens, HT-29, 120 h, 5 days, read-out: IC50 μM, HT29 Colorectal
MDA-MB-468 = assay: Anti-cancer activity, MDA-MB-468 breast cancer cells (MTT); assay type: cell-based; conditions: Homo sapiens, MDA-MB-468, 120 h, 5 days
NCI-H460 = assay: Anti-cancer activity, NCI-H460 large cell lung cancer cells (MTT); assay type: cell-based; conditions: Homo sapiens, NCI-H460, 120 h, 5 days, read-out: IC50 μM, NCI-H460 Lung (NSCLC)

Structure (SMILES)	mean change of LPS-induced TNFα synthesis [1]	EC50 [2]	effect on proliferation of HUVSMCs induced by FCS [3]	IC50 (CP70)	IC50 (HPAC)	IC50 (MM200)	activity against CP70, HPAC and MM200 cell lines (cancer cell lines; CP70, HPAC and MM200)	IC50 (cancer cell lines; read-out: most potent activity against the respective cell lines tested)	IC50 [4]	IC50 [5]	PPARγ activation, increase in beta-lactamase activity over media only control [6]	IC50 (HT29)	IC50 (MDA-MB-468)	IC50 (NCI-H460)
COCCCN1COc2cc3c(cc2C1)C=C(c1cccc(O)c1)CO3 [Compound 17, 3-(3-(3-Methoxypropyl)-2,3,4,8-tetrahydrochromeno[6,7-e][1,3]oxazin-7-yl)phenol]	greatest inhibition	40 µM	significantly inhibited the proliferation	4.5 µM	5.3 µM	2.3 µM	active	1 to 5 µM	55.9 µM	5.5 µM	–	–	–	–
CCCN1COc2cc3c(cc2C1)C=C(c1ccc(O)cc1)C(CC)O3 (centres unmarked) [Compound 27, 4-(8-Ethyl-3-propyl-2,3,4,8-tetrahydrochromeno[6,7-e][1,3]oxazin-7-yl)phenol]	–	26 µM	–	10.9 ± 1.5 µM	12.4 ± 4 µM	23.2 ± 1.1 µM	–	–	40.3 ± 1.2 µM	14.5 ± 1 µM	PPARγ agonist activity	50.8 ± 1 µM	14.9 ± 1 µM	17.8 ± 1.1 µM
